Experimental data as given in patent US12059422B2 (MEI Pharma, Inc., priority 2011, dated 2024).

Assays:
PI3K beta = biological target: T1, PI3K beta (Homo sapiens, UniProt P42338); assay: Luciferase-based luminescence assay (ADP Glo), PI3K beta enzymatic activity; format: biochemical; conditions: for IC50: inhibition of enzymatic activity, ADP Glo, 25 μM ATP, read-out: IC50 p110β; for α/β ratio: ratio of enzymatic IC50 values, Table 1
T1 construct: purchased Millipore, Billerica, MA, USA
In short: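 Final enzyme 4.8 nM PI3K beta or 7.6 nM PI3K gamma, with 50 μM PIP2 and 25 μM ATP, 1 h in HEPES pH 7.5 buffer with MgCl2, EGTA, NaCl, CHAPS and DTT. ADP formed measured by ADP-Glo luminescence; IC50 from 10-point curve fits.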

PI3Kγ = biological target: T2, PI3Kγ (Mus musculus, UniProt Q9JHG7); assay: ELISA assay for PI3Kγ: in-cell ELISA, phosphorylation of AKT (Ser473) in RAW 264.7 cells; format: cell-based; conditions: cellular, pAKT (Ser473), C5a stimulation, read-out: IC50 p110γ
T2 construct: endogenous in cells; host or cells: RAW 264.7 (ATCC #TIB-71)
Description: PI3K gamma (PI3Kγ) activity was determined by measuring the phosphorylation of AKT (Ser473) using an in-cell ELISA assay. RAW 264.7 (mouse macrophage) cells were obtained from ATCC (ATCC #TIB-71). Growth medium was DMEM (CellGro #CV-10-013-CV) supplemented with 10% fetal bovine serum, 100 IU/mL penicillin, 100 μg/mL streptomycin, and 1×MEM non-essential amino acids. Phosphate buffered saline (PBS) contained 2.7 M NaCl, 54 mM KCl, 86 mM […] (dibasic, anhydrous), and 28 mM […] (monobasic, anhydrous) at pH 7.2. Stimulation mixture (10×) was 500 ng/mL recombinant human complement component C5a (R&D systems #2037-C5-025) diluted in serum-free DMEM medium (CellGro #CV-10-013-CV). Compounds for testing were dissolved and serially diluted in 100% DMSO (total of 10 concentrations), then diluted in serum-free DMEM to 2× final assay concentration. Fixative solution (2×) was 8% formaldehyde (Amresco #M134) diluted in PBS. Permeabilization solution was PBS supplemented with 0.10% Triton X-100. Blocking buffer was obtained from LiCor (LiCor #927-40000). Wash buffer was PBS supplemented with 0.1% Tween-20. Primary antibody solution was rabbit anti-pAKT^S473 monoclonal antibody (Cell Signaling #4060) and mouse anti-total S6 (Santa Cruz #74459) diluted 1:500 and 1:2000, respectively, in the blocking buffer. Secondary antibody solution was IRDye 800CW-conjugated goat anti-rabbit IgG (LiCor #926-32211) and IRDye 680LT-conjugated goat anti-mouse IgG (LiCor #926-68020) diluted 1:1000 and 1:2000, respectively, in the blocking buffer.
RAW 264.7 cells were subcultured in growth medium and seeded into flat, clear bottom, 96-well plates (Corning #3904) at 70000 cells/well, then incubated overnight in a 37° C., 5% CO2 incubator. Growth medium in plates was replaced with 100 μL/well serum-free DMEM and incubated overnight in a 37° C., 5% CO2 incubator. Fresh serum-free DMEM (50 μL/well) was added to plates. Compound treatment was performed by adding 50 μL/well of 2× compound mixture to plates and incubating for 2 hrs at 37° C., 5% CO2, after which 11 μL/well of 10× stimulation mixture was added and plates were incubated for 3 min at 37° C., 5% CO2. Fixation was performed by adding 110 μL/well of 2× fixative solution to plates and incubating for 20 min at room temperature. Permeabilization was performed by replacing fixation solution with 150 μL/well permeabilization solution and incubating for 10 min at room temperature. Permeabilization was repeated (for a total of 2 times). Permeabilization solution was replaced with 100 μL/well blocking buffer and plates were incubated for 1 hr at room temperature, after which 100 μL/well of primary antibody solution was added and plates were incubated overnight at 4° C. Plates were washed with wash buffer, after which 100 μL/well of secondary antibody solution was added to the plates and incubated in the dark for 1 hr at room temperature. Plates were washed with wash buffer, followed by awash with PBS. After completely removing PBS, plates were scanned on the Licor Odyssey Imager. Images were quantified using Licor Odyssey application software. IC50 values were determined by curve fitting using a Collaborative Drug Discovery database (www.collaborativedrug.com).

T1 sequence (P42338 whole entry, species assumed): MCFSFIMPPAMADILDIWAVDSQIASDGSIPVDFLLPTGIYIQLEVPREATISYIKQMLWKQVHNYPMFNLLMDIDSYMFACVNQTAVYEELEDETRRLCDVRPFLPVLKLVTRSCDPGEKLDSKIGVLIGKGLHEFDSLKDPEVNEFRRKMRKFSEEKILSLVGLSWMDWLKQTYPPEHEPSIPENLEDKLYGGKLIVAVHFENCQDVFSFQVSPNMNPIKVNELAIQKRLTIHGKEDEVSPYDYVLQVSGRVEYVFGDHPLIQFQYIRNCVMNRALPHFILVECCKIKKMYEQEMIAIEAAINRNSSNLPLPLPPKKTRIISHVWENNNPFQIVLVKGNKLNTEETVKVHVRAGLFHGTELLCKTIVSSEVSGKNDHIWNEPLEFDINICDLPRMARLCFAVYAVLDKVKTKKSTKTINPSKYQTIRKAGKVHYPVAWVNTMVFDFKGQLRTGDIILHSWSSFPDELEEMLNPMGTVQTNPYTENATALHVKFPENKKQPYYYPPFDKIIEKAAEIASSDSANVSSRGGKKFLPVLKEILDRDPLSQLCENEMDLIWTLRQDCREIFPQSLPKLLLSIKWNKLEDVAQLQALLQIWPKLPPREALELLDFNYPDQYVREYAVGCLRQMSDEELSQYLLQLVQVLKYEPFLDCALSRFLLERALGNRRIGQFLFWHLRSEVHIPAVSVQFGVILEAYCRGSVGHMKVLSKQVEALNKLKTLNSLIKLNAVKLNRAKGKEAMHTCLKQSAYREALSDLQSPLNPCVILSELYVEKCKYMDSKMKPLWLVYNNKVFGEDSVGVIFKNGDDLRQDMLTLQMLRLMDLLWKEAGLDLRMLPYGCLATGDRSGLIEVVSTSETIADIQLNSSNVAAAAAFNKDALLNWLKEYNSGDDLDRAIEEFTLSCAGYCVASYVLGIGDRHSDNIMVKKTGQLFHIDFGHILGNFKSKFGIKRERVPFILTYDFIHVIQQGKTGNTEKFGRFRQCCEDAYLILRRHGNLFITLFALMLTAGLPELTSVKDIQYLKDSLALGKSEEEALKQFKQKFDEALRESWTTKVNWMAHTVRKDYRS
T1 sequence (P27986 whole entry partner, species assumed): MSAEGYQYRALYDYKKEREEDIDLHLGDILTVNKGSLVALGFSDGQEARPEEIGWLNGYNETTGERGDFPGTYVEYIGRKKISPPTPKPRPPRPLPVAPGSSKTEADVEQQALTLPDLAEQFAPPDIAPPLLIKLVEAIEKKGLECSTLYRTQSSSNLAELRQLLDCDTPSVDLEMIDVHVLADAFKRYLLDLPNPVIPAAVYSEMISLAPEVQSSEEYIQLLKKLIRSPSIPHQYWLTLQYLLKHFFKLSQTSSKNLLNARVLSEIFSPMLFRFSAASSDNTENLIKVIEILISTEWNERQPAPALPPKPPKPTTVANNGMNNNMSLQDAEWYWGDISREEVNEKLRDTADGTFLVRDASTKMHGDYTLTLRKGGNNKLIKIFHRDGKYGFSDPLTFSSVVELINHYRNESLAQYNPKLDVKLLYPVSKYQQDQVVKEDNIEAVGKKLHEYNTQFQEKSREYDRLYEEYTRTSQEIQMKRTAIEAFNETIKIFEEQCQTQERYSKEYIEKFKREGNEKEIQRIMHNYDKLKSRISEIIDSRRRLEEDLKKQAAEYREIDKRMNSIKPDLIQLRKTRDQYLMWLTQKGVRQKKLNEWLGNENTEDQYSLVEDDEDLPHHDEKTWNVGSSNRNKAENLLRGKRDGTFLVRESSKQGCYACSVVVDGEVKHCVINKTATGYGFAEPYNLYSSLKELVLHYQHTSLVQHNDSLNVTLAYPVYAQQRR
T2 sequence (Q9JHG7 whole entry): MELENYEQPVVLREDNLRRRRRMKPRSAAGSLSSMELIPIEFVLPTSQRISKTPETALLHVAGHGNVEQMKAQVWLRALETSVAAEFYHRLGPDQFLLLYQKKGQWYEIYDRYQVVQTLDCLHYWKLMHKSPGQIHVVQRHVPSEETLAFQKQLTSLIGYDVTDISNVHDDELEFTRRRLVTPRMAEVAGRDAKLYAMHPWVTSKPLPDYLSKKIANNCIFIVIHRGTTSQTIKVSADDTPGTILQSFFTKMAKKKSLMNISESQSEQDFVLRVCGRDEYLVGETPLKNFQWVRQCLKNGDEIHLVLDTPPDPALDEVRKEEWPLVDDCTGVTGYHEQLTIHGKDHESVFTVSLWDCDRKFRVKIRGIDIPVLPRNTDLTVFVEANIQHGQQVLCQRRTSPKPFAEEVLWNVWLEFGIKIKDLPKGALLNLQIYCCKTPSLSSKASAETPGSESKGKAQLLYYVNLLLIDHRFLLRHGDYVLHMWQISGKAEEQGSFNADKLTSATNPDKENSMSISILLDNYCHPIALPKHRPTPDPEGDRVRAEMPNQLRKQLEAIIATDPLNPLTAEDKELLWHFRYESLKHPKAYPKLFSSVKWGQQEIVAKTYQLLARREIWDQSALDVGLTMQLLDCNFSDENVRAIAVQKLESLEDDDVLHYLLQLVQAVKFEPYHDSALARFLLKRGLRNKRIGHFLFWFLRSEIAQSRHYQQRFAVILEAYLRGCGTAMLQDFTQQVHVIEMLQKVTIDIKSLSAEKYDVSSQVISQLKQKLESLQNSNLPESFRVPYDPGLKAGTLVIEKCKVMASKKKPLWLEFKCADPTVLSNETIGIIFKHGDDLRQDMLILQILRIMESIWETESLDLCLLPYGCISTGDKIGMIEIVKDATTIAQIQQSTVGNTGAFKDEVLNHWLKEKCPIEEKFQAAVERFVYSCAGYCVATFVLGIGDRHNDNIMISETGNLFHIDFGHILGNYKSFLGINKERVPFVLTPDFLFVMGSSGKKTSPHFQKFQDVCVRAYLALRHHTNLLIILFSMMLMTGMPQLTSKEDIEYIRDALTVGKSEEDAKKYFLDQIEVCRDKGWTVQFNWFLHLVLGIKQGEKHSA

## CC(C)(Cc1ccc(F)cc1)Nc1nc(N2CCOCC2)nc(-n2c(C(F)F)nc3ccccc32)n1 [Compound A22, 4-(2-(difluoromethyl)-1H-benzo[d]imidazol-1-yl)-N-(1-(4-fluorophenyl)-2-methylpropan-2-yl)-6-morpholino-1,3,5-triazin-2-amine]
PI3K beta
  IC50: 100 to 200 nM
  α/β ratio: C’
PI3Kγ
  IC50: 200 to 500 nM

## CN1CCC(c2ccccc2CC(C)(C)Nc2nc(N3CCOCC3)nc(-n3c(C(F)F)nc4ccccc43)n2)CC1 [Compound A35, 4-(2-(difluoromethyl)-1H-benzo[d]imidazol-1-yl)-N-(2-methyl-1-(2-(1-methylpiperidin-4-yl)phenyl)propan-2-yl)-6-morpholino-1,3,5-triazin-2-amine]
PI3K beta
  IC50: 200 to 500 nM
  α/β ratio: B’
PI3Kγ
  IC50: 200 to 500 nM

## CC(C)(Cc1c(F)cccc1F)Nc1nc(N2CCOCC2)nc(-n2c(C(F)F)nc3ccccc32)n1 [Compound A52, 4-(2-(difluoromethyl)-1H-benzo[d]imidazol-1-yl)-N-(1-(2,6-difluorophenyl)-2-methylpropan-2-yl)-6-morpholino-1,3,5-triazin-2-amine]
PI3K beta
  IC50: > 500 nM
  α/β ratio: D’
PI3Kγ
  IC50: 100 to 200 nM

## CC(C)N1CCC(c2ccccc2CC(C)(C)Nc2nc(N3CCOCC3)nc(-n3c(C(F)F)nc4ccccc43)n2)CC1 [Compound A71, 4-(2-(difluoromethyl)-1H-benzo[d]imidazol-1-yl)-N-(1-(2-(1-isopropylpiperidin-4-yl)phenyl)-2-methylpropan-2-yl)-6-morpholino-1,3,5-triazin-2-amine]
PI3K beta
  IC50: > 500 nM
  α/β ratio: D’
PI3Kγ
  IC50: > 500 nM

## CC(C)(Cc1ccccc1-c1cccc(CN2CCOCC2)c1)Nc1nc(N2CCOCC2)nc(-n2c(C(F)F)nc3ccccc32)n1 [Compound A65, 4-(2-(difluoromethyl)-1H-benzo[d]imidazol-1-yl)-N-(2-methyl-1-(3′-(morpholinomethyl)biphenyl-2-yl)propan-2-yl)-6-morpholino-1,3,5-triazin-2-amine]
PI3K beta
  IC50: ≤ 100 nM
  α/β ratio: A’
PI3Kγ
  IC50: 200 to 500 nM

## CN1CCN(c2cc(-c3ccccc3CC(C)(C)Nc3nc(N4CCOCC4)nc(-n4c(C(F)F)nc5ccccc54)n3)ccn2)CC1 [Compound A64, 4-(2-(difluoromethyl)-1H-benzo[d]imidazol-1-yl)-N-(2-methyl-1-(2-(2-(4-methylpiperazin-1-yl)pyridin-4-yl)phenyl)propan-2-yl)-6-morpholino-1,3,5-triazin-2-amine]
PI3K beta
  IC50: ≤ 100 nM
  α/β ratio: A’
PI3Kγ
  IC50: > 500 nM

## CC(C)(Cc1cccc(F)c1)Nc1nc(N2CCOCC2)nc(-n2c(C(F)F)nc3ccccc32)n1 [Compound A39, 4-(2-(difluoromethyl)-1H-benzo[d]imidazol-1-yl)-N-(1-(3-fluorophenyl)-2-methylpropan-2-yl)-6-morpholino-1,3,5-triazin-2-amine]
PI3K beta
  IC50: ≤ 100 nM
  α/β ratio: A’
PI3Kγ
  IC50: 100 to 200 nM

## Cn1cc(-c2ccccc2CC(C)(C)Nc2nc(N3CCOCC3)nc(-n3c(C(F)F)nc4ccccc43)n2)cn1 [Compound A45, 4-(2-(difluoromethyl)-1H-benzo[d]imidazol-1-yl)-N-(2-methyl-1-(2-(1-methyl-1H-pyrazol-4-yl)phenyl)propan-2-yl)-6-morpholino-1,3,5-triazin-2-amine]
PI3K beta
  IC50: ≤ 100 nM
  α/β ratio: A’
PI3Kγ
  IC50: ≤ 100 nM

## CC(C)(Cc1ccccc1C1CCNCC1)Nc1nc(N2CCOCC2)nc(-n2c(C(F)F)nc3ccccc32)n1 [Compound A68, 4-(2-(difluoromethyl)-1H-benzo[d]imidazol-1-yl)-N-(2-methyl-1-(2-(piperidin-4-yl)phenyl)propan-2-yl)-6-morpholino-1,3,5-triazin-2-amine]
PI3K beta
  IC50: > 500 nM
  α/β ratio: D’
PI3Kγ
  IC50: 200 to 500 nM

## CC(C)(Cc1ccccc1)Nc1nc(N2CCOCC2)nc(-n2c(C(F)F)nc3ccccc32)n1 [Compound A14, 4-(2-(difluoromethyl)-1H-benzo[d]imidazol-1-yl)-N-(2-methyl-1-phenylpropan-2-yl)-6-morpholino-1,3,5-triazin-2-amine]
PI3K beta
  IC50: ≤ 100 nM
  α/β ratio: A’
PI3Kγ
  IC50: 200 to 500 nM

## CC(C)(Cc1ccccc1C1CCNC1)Nc1nc(N2CCOCC2)nc(-n2c(C(F)F)nc3ccccc32)n1 (stereo not drawn) [Compound A74, 4-(2-(difluoromethyl)-1H-benzo[d]imidazol-1-yl)-N-(2-methyl-1-(2-(pyrrolidin-3-yl)phenyl)propan-2-yl)-6-morpholino-1,3,5-triazin-2-amine]
PI3K beta
  IC50: > 500 nM
  α/β ratio: D’
PI3Kγ
  IC50: 200 to 500 nM

## CC(C)(Cc1ccc(F)cc1F)Nc1nc(N2CCOCC2)nc(-n2c(C(F)F)nc3ccccc32)n1 [Compound A51, 4-(2-(difluoromethyl)-1H-benzo[d]imidazol-1-yl)-N-(1-(2,4-difluorophenyl)-2-methylpropan-2-yl)-6-morpholino-1,3,5-triazin-2-amine]
PI3K beta
  IC50: > 500 nM
  α/β ratio: D’
PI3Kγ
  IC50: 100 to 200 nM

## Cc1cccc(CC(C)(C)Nc2nc(N3CCOCC3)nc(-n3c(C(F)F)nc4ccccc43)n2)c1 [Compound A49, 4-(2-(difluoromethyl)-1H-benzo[d]imidazol-1-yl)-N-(2-methyl-1-m-tolylpropan-2-yl)-6-morpholino-1,3,5-triazin-2-amine]
PI3K beta
  IC50: ≤ 100 nM
  α/β ratio: A’
PI3Kγ
  IC50: 200 to 500 nM

## CC(C)(Cc1ccccc1-c1cccnc1)Nc1nc(N2CCOCC2)nc(-n2c(C(F)F)nc3ccccc32)n1 [Compound A40, 4-(2-(difluoromethyl)-1H-benzo[d]imidazol-1-yl)-N-(2-methyl-1-(2-(pyridin-3-yl)phenyl)propan-2-yl)-6-morpholino-1,3,5-triazin-2-amine]
PI3K beta
  IC50: ≤ 100 nM
  α/β ratio: B’
PI3Kγ
  IC50: 200 to 500 nM

## CC(C)(Cc1ccccc1-c1cncnc1)Nc1nc(N2CCOCC2)nc(-n2c(C(F)F)nc3ccccc32)n1 [Compound A63, 4-(2-(difluoromethyl)-1H-benzo[d]imidazol-1-yl)-N-(2-methyl-1-(2-(pyrimidin-5-yl)phenyl)propan-2-yl)-6-morpholino-1,3,5-triazin-2-amine]
PI3K beta
  IC50: ≤ 100 nM
  α/β ratio: D’
PI3Kγ
  IC50: > 500 nM

## Cc1cc(-c2ccccc2CC(C)(C)Nc2nc(N3CCOCC3)nc(-n3c(C(F)F)nc4ccccc43)n2)ccn1 [Compound A43, 4-(2-(difluoromethyl)-1H-benzo[d]imidazol-1-yl)-N-(2-methyl-1-(2-(2-methylpyridin-4-yl)phenyl)propan-2-yl)-6-morpholino-1,3,5-triazin-2-amine]
PI3K beta
  IC50: ≤ 100 nM
  α/β ratio: A’
PI3Kγ
  IC50: 200 to 500 nM

## Cn1nccc1-c1ccccc1CC(C)(C)Nc1nc(N2CCOCC2)nc(-n2c(C(F)F)nc3ccccc32)n1 [Compound A46, 4-(2-(difluoromethyl)-1H-benzo[d]imidazol-1-yl)-N-(2-methyl-1-(2-(1-methyl-1H-pyrazol-5-yl)phenyl)propan-2-yl)-6-morpholino-1,3,5-triazin-2-amine]
PI3K beta
  IC50: ≤ 100 nM
  α/β ratio: A’
PI3Kγ
  IC50: 200 to 500 nM

## CC(C)(Cc1ccccc1-c1cn[nH]c1)Nc1nc(N2CCOCC2)nc(-n2c(C(F)F)nc3ccccc32)n1 [Compound A44, 4-(2-(difluoromethyl)-1H-benzo[d]imidazol-1-yl)-N-(1-(2-(1H-pyrazol-4-yl)phenyl)-2-methylpropan-2-yl)-6-morpholino-1,3,5-triazin-2-amine]
PI3K beta
  IC50: ≤ 100 nM
  α/β ratio: A’
PI3Kγ
  IC50: ≤ 100 nM
